Reference: patent publication US20230117034A1, “PYRAZOLOTRIAZINES” (Bayer Aktiengesellschaft, priority 2019, published 2023)

Assays:
[1] = system: MDA-MB-231, human breast cancer cells; assay: Proliferation assay MDA-MB-231 (crystal violet, 4 days); assay type: cell-based; conditions: Homo sapiens, MDA-MB-231, 96 h, MDA-MB-231 cells, median, read-out: Prolif-MDA MB-231, IC50-[mol/l] (median)
Procedure, shortened: (§1)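 Crystal violet proliferation read-out after 4 days of compound exposure (0.01-10 µmol/L; solvent 0.1% DMSO). Extinction at 595 nm, set between zero-point (0%) and vehicle (100%), fitted with 4 parameters to give IC50.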

[2] = molecular target: T1, CYCLIN K (nuclear staining in CAL-120 cells) (Homo sapiens, UniProt O75909); assay: CYCLIN K nuclear protein level: immunofluorescence high content analysis (CAL-120); assay type: cell-based; conditions: 24 h, 50% reduction of nuclear CCNK staining intensity, median, read-out: CYCLIN K degradation IF, DC50-[mol/l] (median)
T1 construct: endogenous in cells; host or cells: CAL-120 human breast cancer cells (DSMZ ACC 459)
Procedure, shortened: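 Readout is automated confocal image analysis of nuclear cyclin K immunofluorescence (Hoechst nuclei) after PFA fixation. Cells were CAL-120, exposed to compound dose-response 24 h at 37 °C; values are DC50 for halving nuclear CCNK signal relative to DMSO and control wells.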

CDK9/CycT1 = molecular target: T2, CDK9/CycT1 (Homo sapiens, UniProt P50750); assay: CDK9/CycT1 high ATP kinase assay (TR-FRET, 2 mM ATP); assay type: biochemical; conditions: 2 mM ATP (high ATP); median; read-out: CDK9/CyclinT1, 2 mM ATP (high ATP), IC50 (median)
T2 construct: Recombinant full-length His-tagged human CDK9 and CycT1; purchased Life Technologies PV4131; host or cells: insect cells
Procedure, shortened: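 Full-length His-tagged human CDK9/CycT1 (insect cell, ~0.5 μg/mL) preincubated 15 min at 22 °C with compound in Tris pH 8.0, MgCl2, DTT buffer before reaction with biotinylated peptide substrate at high ATP (2 mM).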

[3] = system: CAL-120, human breast adenocarcinoma cells; assay: Proliferation assay CAL-120 (crystal violet, 4 days); assay type: cell-based; conditions: Homo sapiens, CAL-120, 96 h, CAL-120 cells, median, read-out: Prolif-CAL-120, IC50-[mol/l] (median)
Procedure, shortened: as §1

T1 sequence (O75909 whole entry): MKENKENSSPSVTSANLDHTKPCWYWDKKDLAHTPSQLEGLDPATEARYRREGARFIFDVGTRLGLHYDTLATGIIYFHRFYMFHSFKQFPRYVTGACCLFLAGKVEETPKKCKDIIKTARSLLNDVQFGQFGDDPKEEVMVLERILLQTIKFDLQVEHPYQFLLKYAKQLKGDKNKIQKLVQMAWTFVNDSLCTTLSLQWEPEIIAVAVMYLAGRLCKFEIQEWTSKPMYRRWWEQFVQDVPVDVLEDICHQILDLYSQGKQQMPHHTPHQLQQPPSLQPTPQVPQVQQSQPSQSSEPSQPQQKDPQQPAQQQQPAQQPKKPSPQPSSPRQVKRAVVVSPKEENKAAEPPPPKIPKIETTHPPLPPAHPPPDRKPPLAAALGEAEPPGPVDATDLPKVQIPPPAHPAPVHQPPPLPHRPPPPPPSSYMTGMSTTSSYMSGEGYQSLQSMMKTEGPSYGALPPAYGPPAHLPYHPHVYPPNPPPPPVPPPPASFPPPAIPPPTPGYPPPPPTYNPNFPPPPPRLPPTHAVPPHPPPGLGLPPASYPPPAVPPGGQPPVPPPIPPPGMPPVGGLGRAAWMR
T1 sequence (Q9NYV4 whole entry partner): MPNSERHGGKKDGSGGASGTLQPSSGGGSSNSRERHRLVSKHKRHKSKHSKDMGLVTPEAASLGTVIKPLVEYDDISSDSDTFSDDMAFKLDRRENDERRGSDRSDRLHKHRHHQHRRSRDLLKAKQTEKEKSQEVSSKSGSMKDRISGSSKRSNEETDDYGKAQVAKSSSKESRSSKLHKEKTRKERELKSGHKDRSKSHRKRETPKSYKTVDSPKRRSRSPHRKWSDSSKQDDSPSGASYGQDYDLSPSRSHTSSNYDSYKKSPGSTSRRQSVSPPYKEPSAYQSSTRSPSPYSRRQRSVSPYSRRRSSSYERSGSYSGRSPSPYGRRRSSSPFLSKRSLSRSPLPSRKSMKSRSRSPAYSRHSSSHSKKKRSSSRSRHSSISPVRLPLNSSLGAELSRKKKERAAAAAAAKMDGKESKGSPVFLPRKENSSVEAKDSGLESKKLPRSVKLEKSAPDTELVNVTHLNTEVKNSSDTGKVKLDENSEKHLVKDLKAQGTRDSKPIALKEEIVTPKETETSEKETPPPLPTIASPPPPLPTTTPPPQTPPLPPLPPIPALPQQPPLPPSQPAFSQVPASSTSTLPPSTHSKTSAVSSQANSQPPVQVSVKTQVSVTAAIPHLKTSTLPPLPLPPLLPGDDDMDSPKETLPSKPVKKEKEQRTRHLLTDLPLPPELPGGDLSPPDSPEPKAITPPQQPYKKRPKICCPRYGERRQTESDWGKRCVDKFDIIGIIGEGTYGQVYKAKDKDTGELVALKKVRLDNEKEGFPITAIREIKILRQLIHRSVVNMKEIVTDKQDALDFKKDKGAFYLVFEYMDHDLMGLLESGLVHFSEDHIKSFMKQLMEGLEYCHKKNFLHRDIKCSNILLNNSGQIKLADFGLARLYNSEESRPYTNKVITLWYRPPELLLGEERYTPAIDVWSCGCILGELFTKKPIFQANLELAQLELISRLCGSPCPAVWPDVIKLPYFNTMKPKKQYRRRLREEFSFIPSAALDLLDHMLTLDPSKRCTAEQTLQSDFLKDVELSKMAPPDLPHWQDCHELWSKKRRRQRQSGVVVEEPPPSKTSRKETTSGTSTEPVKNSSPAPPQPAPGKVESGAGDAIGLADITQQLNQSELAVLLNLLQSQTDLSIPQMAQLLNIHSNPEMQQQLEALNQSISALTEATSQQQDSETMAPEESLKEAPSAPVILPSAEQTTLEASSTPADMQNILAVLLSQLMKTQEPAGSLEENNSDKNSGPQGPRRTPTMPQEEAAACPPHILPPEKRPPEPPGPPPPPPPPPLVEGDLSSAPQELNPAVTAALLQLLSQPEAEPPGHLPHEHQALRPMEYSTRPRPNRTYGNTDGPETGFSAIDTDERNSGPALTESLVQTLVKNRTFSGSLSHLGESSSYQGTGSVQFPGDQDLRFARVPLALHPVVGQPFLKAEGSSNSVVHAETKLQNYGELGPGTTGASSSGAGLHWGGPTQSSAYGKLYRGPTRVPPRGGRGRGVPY
T2 sequence (P50750 whole entry): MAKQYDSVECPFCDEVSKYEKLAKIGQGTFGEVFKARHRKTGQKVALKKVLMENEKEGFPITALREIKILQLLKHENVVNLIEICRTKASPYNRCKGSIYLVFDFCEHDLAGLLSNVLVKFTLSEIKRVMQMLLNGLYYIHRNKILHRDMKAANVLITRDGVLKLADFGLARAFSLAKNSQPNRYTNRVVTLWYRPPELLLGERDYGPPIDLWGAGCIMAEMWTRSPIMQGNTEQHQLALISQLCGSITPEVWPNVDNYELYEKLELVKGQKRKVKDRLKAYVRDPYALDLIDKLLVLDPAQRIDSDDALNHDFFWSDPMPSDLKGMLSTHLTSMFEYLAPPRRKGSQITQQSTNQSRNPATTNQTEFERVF
T2 sequence (O60563 whole entry partner): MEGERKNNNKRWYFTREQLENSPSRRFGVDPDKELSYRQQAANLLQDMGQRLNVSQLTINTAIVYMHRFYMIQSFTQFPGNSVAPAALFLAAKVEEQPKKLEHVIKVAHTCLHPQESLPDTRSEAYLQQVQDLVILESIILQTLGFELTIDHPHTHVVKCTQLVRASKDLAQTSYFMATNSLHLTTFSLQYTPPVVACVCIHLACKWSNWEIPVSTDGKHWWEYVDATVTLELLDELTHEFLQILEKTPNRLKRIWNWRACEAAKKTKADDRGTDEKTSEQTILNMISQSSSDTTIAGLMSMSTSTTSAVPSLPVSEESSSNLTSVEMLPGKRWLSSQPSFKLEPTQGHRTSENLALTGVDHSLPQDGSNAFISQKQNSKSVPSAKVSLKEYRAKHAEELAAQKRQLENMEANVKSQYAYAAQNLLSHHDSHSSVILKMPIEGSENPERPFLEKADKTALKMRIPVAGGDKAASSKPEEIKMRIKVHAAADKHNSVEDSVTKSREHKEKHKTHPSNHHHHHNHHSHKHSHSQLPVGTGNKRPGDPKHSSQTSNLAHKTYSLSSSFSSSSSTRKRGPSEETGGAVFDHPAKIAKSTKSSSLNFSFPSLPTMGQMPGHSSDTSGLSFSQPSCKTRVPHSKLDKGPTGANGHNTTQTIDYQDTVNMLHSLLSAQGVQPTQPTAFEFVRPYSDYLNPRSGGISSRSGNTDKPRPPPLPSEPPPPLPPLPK

| IC50 [1] [nM] | DC50 [2] [nM] | IC50 (CDK9/CycT1) [nM] | IC50 [3] [nM] | SMILES |
| --- | --- | --- | --- | --- |
| 2.26 | 0.0619 | > 20000 | 1.28 | Cc1ccc2[nH]c(CNc3nc(N4C[C@@H](C)N[C@@H](C)C4)nc4c(Br)cnn34)nc2c1 [Example 209, 8-bromo-2-[(3R,5S)-3,5-dimethylpiperazin-1-yl]-N-[(5-methyl-1H-benzimidazol-2-yl)methyl]pyrazolo[1,5-a][1,3,5]triazin-4-amine] |
| 21.2 | 1.14 | > 20000 | 7.04 | Brc1cnn2c(NCc3nc4ccccc4[nH]3)nc(N3CC4CCC3CN4)nc12 (stereo not shown) [Example 220, N-(1H-benzimidazol-2-ylmethyl)-8-bromo-2-(2,5-diazabicyclo[2.2.2]octan-2-yl)pyrazolo[1,5-a][1,3,5]triazin-4-amine] |
| 9.29 | 0.503 | > 20000 | 6.1 | Fc1ccc2[nH]c(CNc3nc(N4CCOCC4)nc4c(C5CC5)cnn34)nc2c1 [Example 181, 8-cyclopropyl-N-[(5-fluoro-1H-benzimidazol-2-yl)methyl]-2-(morpholin-4-yl)pyrazolo[1,5-a][1,3,5]triazin-4-amine] |
| 17.7 | 0.347 | > 20000 | 6.2 | COc1cccc2[nH]c(CNc3nc(N4C[C@@H]5CCCN[C@@H]5C4)nc4c(C5CC5)cnn34)nc12 [Example 214, 8-cyclopropyl-N-[(4-methoxy-1H-benzimidazol-2-yl)methyl]-2-[(4aS,7aS)-octahydro-6H-pyrrolo[3,4-b]pyridin-6-yl]pyrazolo[1,5-a][1,3,5]triazin-4-amine] |
| 8.06 | 0.199 | > 20000 | 4.66 | Cc1ccc2[nH]c(CNc3nc(N4CCN(C)CC4)nc4c(C5CC5)cnn34)nc2c1 [Example 210, 8-cyclopropyl-N-[(5-methyl-1H-benzimidazol-2-yl)methyl]-2-(4-methylpiperazin-1-yl)pyrazolo[1,5-a][1,3,5]triazin-4-amine] |
| 59.9 | 1.74 | > 20000 | 31.3 | O[C@H]1C[C@@H](Nc2nc(NCc3nc4ccccc4[nH]3)n3ncc(Br)c3n2)C1 [Example 234, cis-3-[(4-{[(1H-benzimidazol-2-yl)methyl]amino}-8-bromopyrazolo[1,5-a][1,3,5]triazin-2-yl)amino]cyclobutan-1-ol] |
| 16.1 | 0.815 | > 20000 | 17.6 | Fc1cccc2[nH]c(CNc3nc(N4CCOCC4)nc4c(C5CC5)cnn34)nc12 [Example 188, 8-cyclopropyl-N-[(4-fluoro-1H-benzimidazol-2-yl)methyl]-2-(morpholin-4-yl)pyrazolo[1,5-a][1,3,5]triazin-4-amine] |
| 1.69 | 0.0954 | > 20000 | 1.16 | Cc1ccc2[nH]c(CNc3nc(N4C[C@@H](C)N[C@@H](C)C4)nc4c(C5CC5)cnn34)nc2c1 [Example 194, 8-cyclopropyl-2-[(3R,5S)-3,5-dimethylpiperazin-1-yl]-N-[(5-methyl-1H-benzimidazol-2-yl)methyl]pyrazolo[1,5-a][1,3,5]triazin-4-amine] |

| SMILES | IC50 [1] [nM] | DC50 [2] [nM] | IC50 (CDK9/CycT1) [nM] | IC50 [3] [nM] |
| --- | --- | --- | --- | --- |
| Brc1cnn2c(NCc3nc4ccccc4[nH]3)nc(N3CC4CCC(C3)N4)nc12 [Example 232, N-(1H-benzimidazol-2-ylmethyl)-8-bromo-2-(3,8-diazabicyclo[3.2.1]octan-3-yl)pyrazolo[1,5-a][1,3,5]triazin-4-amine] | 17.9 | 1.06 | > 20000 | 5.25 |
| CN1CC2CCC(C1)N2c1nc(NCc2nc3ccccc3[nH]2)n2ncc(Br)c2n1 [Example 226, N-(1H-benzimidazol-2-ylmethyl)-8-bromo-2-(3-methyl-3,8-diazabicyclo[3.2.1]octan-8-yl)pyrazolo[1,5-a][1,3,5]triazin-4-amine] | 162 | 3.89 | > 20000 | 116 |
